From PubChem BioAssay (NCI)
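Tested at 5 concentrations; 48 h exposure; 96-well plates; endpoints linearly interpolated, else capped at highest concentration. The concentration for full growth arrest is given as TGI.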

How the values were obtained:
Assay in all cases: DTP human tumour cell line panel, 48 h
A498 renal = system: A498 renal
CCRF-CEM leukemia = system: CCRF-CEM leukemia
COLO 205 colon = system: COLO 205 colon
HOP-62 NSCLC = system: HOP-62 NSCLC
KM12 colon = system: KM12 colon
NCI-H23 lung = system: NCI-H23 lung
OVCAR-4 ovarian = system: OVCAR-4 ovarian
SF-295 CNS = system: SF-295 CNS
SNB-75 CNS = system: SNB-75 CNS
UACC-62 melanoma = system: UACC-62 melanoma
MDA-MB-231 breast = system: MDA-MB-231 breast

Row | SMILES | TGI (A498 renal) | TGI (CCRF-CEM leukemia) | TGI (COLO 205 colon) | TGI (HOP-62 NSCLC) | TGI (KM12 colon) | TGI (NCI-H23 lung) | TGI (OVCAR-4 ovarian) | TGI (SF-295 CNS) | TGI (SNB-75 CNS) | TGI (UACC-62 melanoma) | TGI (MDA-MB-231 breast)
1 | Cc1n[n+](Cc2ccccc2)c2sc(N)nn12 | > 100 µM | > 100 µM | > 100 µM | > 100 µM | > 100 µM | > 100 µM | > 100 µM | > 100 µM | > 100 µM | 38.5 µM | 
2 | CCCn1cnc2c(SCc3ccc(Cl)cc3)nc(N)nc21 | 49.1 µM | > 100 µM |  | 44.4 µM | 58.9 µM | > 100 µM | > 100 µM | 45.9 µM | 88.7 µM | 52.8 µM | 60.1 µM
3 | S=C1NCCN1C(=S)Nc1ccccc1 | > 100 µM | > 100 µM | > 100 µM | > 100 µM | > 100 µM | > 100 µM | > 100 µM | > 100 µM | > 100 µM | > 100 µM | > 100 µM
4 | CCOC(=O)CCC1(CCC(=O)OCC)CCCCCCCCC(CCC(=O)OCC)(CCC(=O)OCC)C(=O)C1=O | > 100 µM |  | > 100 µM | > 100 µM | > 100 µM | > 100 µM | > 100 µM | > 100 µM | > 100 µM | > 100 µM | 
5 | N/C(=N\S(=O)(=O)c1ccc(-c2ncccc2C(F)(F)F)s1)Nc1ccc(Cl)cc1 | 30.7 µM |  | > 100 µM | 38.3 µM | 81.2 µM | 27.5 µM | 42.9 µM | 31.6 µM | 40 µM | 23.3 µM | 27.2 µM
6 | C=CC1(CC[C@]2(c3ccc(OC)c(OC)c3)C=[N+]([O-])O[C@H](O[C@@H]3CCCC[C@H]3C(C)(C)c3ccccc3)C2)OCC(C)(C)CO1 | > 61 µM | 23.8 µM | > 53.3 µM | 36.5 µM | 41.4 µM | > 100 µM | 28.9 µM | > 51.2 µM | > 52.2 µM | 33.9 µM | 33.9 µM
7 | O=C(NCCN1CCOCC1)c1ccc(I)cc1 | > 100 µM | > 100 µM |  |  |  | > 100 µM | > 100 µM |  | > 100 µM | > 100 µM | 
8 | C=C1CC[C@H]2C(=O)OC(c3ccoc3)C[C@]2(C)C/C=C\C=C/1C(=O)OC (stereo partly drawn) | > 25 µM |  | > 25 µM | > 25 µM | > 25 µM | > 25 µM | > 25 µM | > 25 µM | > 25 µM | > 25 µM | > 25 µM
9 | OC(C/C=N/N=C/CC(O)(C(F)(F)Cl)C(F)(F)Cl)(C(F)(F)Cl)C(F)(F)Cl | > 10 µM | > 10 µM | > 10 µM | > 10 µM | > 10 µM | > 10 µM | > 10 µM | > 10 µM | > 10 µM | > 10 µM | > 10 µM
10 | NCCCNCCCCN1CCOC1=O | > 100 µM | > 100 µM | > 100 µM | > 100 µM | > 100 µM | > 100 µM |  | > 100 µM | > 100 µM | > 100 µM | > 100 µM
11 | COc1cccc(CC(=O)N2CCN(CCCc3ccccc3)CC2)c1 | > 100 µM | > 100 µM | > 100 µM | > 100 µM | > 100 µM | > 100 µM | > 100 µM | > 100 µM |  | > 100 µM | > 100 µM
